Patent US12643910B2, “Substituted pyrazolo[3,4-b]pyridines as ectonucleotide pyrophosphatase/phosphodiesterase 1 (ENPP1) modulators” (SANFORD BURNHAM PREBYS MEDICAL DISCOVERY INSTITUTE, priority 2019, dated 2026)

Tests used:
human ENPP1 = biological target: T1, human ENPP1 (Homo sapiens, UniProt P22413); assay: ENPP1 assay with ATP substrate (Transcreener AMP2/GMP2 TR-FRET); format: biochemical; conditions: 1 hour at room temperature
T1 construct: made in house
T1 sequence (P22413 1-925): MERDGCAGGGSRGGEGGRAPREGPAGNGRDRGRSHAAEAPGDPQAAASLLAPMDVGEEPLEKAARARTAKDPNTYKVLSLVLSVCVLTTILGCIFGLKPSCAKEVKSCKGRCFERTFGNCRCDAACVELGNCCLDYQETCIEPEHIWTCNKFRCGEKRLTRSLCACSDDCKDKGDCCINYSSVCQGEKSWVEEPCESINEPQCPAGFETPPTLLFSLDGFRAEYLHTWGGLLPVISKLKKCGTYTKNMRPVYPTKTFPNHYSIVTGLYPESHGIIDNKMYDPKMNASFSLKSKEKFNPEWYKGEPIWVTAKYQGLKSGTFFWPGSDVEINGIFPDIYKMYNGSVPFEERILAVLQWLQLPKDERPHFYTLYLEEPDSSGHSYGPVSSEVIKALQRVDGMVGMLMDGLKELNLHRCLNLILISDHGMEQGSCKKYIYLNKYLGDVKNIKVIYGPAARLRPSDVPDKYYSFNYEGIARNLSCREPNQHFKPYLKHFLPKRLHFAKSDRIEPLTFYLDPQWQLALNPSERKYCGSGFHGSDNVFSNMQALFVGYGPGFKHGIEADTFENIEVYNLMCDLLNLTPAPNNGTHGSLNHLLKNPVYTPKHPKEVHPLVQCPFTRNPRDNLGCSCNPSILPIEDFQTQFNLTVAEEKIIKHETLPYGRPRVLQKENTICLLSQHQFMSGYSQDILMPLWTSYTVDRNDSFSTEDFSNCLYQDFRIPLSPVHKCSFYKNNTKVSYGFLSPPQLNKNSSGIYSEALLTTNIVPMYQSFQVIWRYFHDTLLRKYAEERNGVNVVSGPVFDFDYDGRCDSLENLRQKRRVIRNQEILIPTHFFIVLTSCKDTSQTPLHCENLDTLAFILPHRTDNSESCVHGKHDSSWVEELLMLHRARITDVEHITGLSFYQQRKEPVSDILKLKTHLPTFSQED
Method in brief: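 Reaction ran 1 h at room temperature in pH 7.5 Tris with MgCl2, TCEP, Tween 20 and 1% DMSO. ATP was added as a 300 nM stock and enzyme as an 8.5 μM stock. After EDTA stop, AMP was read by TR-FRET tracer displacement. Percent inhibition used enzyme/no-enzyme controls; IC50 was fitted with a variable slope.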

ENPP3 = biological target: T2, ENPP3 (Homo sapiens, UniProt O14638); assay: ENPP3 Km ATP assay; format: biochemical; conditions: ATP at Km
T2 sequence (O14638 1-875): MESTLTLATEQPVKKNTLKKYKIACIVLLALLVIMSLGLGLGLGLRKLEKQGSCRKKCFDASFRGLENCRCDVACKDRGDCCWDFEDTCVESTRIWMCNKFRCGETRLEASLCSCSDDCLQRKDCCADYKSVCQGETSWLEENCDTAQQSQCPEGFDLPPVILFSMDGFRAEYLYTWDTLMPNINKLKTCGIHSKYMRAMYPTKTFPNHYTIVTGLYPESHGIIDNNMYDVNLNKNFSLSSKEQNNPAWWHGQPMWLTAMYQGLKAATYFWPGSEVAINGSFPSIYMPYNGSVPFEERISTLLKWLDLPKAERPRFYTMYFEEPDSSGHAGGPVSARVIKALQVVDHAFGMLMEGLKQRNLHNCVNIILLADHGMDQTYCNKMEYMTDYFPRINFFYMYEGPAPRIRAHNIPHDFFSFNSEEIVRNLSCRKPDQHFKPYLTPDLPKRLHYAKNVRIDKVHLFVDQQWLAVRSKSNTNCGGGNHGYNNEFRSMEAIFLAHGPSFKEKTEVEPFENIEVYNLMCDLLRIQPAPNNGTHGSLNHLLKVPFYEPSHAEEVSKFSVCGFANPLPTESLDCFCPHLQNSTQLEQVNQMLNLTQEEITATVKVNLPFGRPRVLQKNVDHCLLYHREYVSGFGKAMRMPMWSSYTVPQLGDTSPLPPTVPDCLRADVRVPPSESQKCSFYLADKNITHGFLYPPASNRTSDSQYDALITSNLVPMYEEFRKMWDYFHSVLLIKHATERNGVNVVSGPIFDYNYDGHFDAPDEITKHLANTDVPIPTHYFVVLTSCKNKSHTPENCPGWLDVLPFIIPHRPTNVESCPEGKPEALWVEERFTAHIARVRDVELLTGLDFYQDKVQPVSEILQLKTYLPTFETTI

Structure (SMILES): Cc1csc2c(N3CCN(CCCCc4ccncc4)CC3)ncnc12 [Example 3.7, 7-Methyl-4-(4-(4-(pyridin-4-yl)butyl)piperazin-1-yl)thieno[3,2-d]pyrimidine]
- IC50 (human ENPP1): 1 to 20 µM
- IC50 (ENPP3): > 20 µM

Structure (SMILES): Cc1csc2c(N3CCC(NC(=O)CCc4cccc(Cl)c4)CC3)ncnc12 [Example 3.18, 3-(3-Chlorophenyl)-N-(1-(7-methylthieno[3,2-d]pyrimidin-4-Y)piperidin-4-yl)propanamide]
- IC50 (human ENPP1): > 20 µM
- IC50 (ENPP3): > 20 µM
